test system: hairless mice (Hos: HR-1); experiment: In vivo improvement of UV-induced wrinkles, oral administration (skin replicas, Skin Visiometer); details: UV-exposed hairless mice, oral daily for 8 weeks; flavones 50 mg/kg/day, extract 200 mg/kg/day; FIG. 14
Experimental: (§1) To the hairless mice exposed to UV in Example 7-1,5,7-dimethoxyflavone (50 mg/kg/day), 5,7,4′-trimethoxyflavone (50 mg/kg/day), 3,5,7,3′,4′-pentamethoxyflavone (50 mg/kg/day) and the ethanol extract of Kaempferia parviflora (200 mg/kg/day) dissolved in 0.5% carboxymethyl cellulose solution containing 5% Tween 80 were orally administered daily for 8 weeks. For the control groups (Non UV-treated Group and UV-treated Group), 0.5% carboxymethyl cellulose solution was administered. In order to test the preventative effect of wrinkle formation, skin replicas were taken using silicone polymer (SILFLO Impression Material, Flexico, England). The image files of the skin replicas were subjected to wrinkle evaluation using the computer imaging analysis system, i.e. Skin Visiometer SV 600 software (Courage+Khazaha Electronic, Kln, Germany).

SMILES	wrinkle formation (skin replicas) compared with UV-treated Group
COc1cc(OC)c2c(=O)cc(-c3ccccc3)oc2c1 [5,7-dimethoxyflavone]	remarkable decrease in wrinkle formation
COc1cc(OC)c2c(=O)c(OC)c(-c3ccc(OC)c(OC)c3)oc2c1 [3,5,7,3′,4′-pentamethoxyflavone]	remarkable decrease in wrinkle formation
COc1ccc(-c2cc(=O)c3c(OC)cc(OC)cc3o2)cc1 [5,7,4′-trimethoxyflavone]	remarkable decrease in wrinkle formation

same assay, conditions: UV-exposed hairless mice, oral daily for 8 weeks; flavones 50 mg/kg/day, extract 200 mg/kg/day; p<0.05; FIGS. 15A-15D

SMILES	Rt, Rm, Rz and Ra values (degree of wrinkle formation)
COc1cc(OC)c2c(=O)cc(-c3ccccc3)oc2c1 [5,7-dimethoxyflavone]	significantly reduced
COc1cc(OC)c2c(=O)c(OC)c(-c3ccc(OC)c(OC)c3)oc2c1 [3,5,7,3′,4′-pentamethoxyflavone]	significantly reduced
COc1ccc(-c2cc(=O)c3c(OC)cc(OC)cc3o2)cc1 [5,7,4′-trimethoxyflavone]	significantly reduced

test system: hairless mice (Hos: HR-1); experiment: UV-induced Trans-Epidermal Water Loss (TEWL), application onto the skin (Tewameter); type: in vivo; details: UV-exposed hairless mice, skin application for 8 weeks; back skin
Experimental: (§2) Forty eight (48) 6-week-old female hairless mice (Hos: HR-1) were accustomed for a week and randomly divided into six (6) groups, eight (8) mice per each group. The hairless mice were exposed to UV for 8 weeks. UV irradiation was carried out 3 times a week, while the amount of UV irradiation was increased from 1 MED (1 MED=50 mJ/cm^2) to 4 MED which was then kept until the end of the test. Test groups were divided into a total of six groups, i.e. Non UV-treated Group, UV-treated Group, UV+5,7-dimethoxyflavone-treated Group, UV+5,7,4′-trimethoxyflavone-treated Group, UV+3,5,7,3′,4′-pentamethoxyflavone-treated Group, and UV+ethanol extract of Kaempferia parviflora-treated Group. Each sample was dissolved in a mixture solvent of ethanol and polyethylene glycol (7:3, v/v), and 50 μL of each sample was applied onto the back of the mice every day for 8 weeks. For the Non UV-treated group and the UV-treated group, 50 μL of a mixture of ethanol and polyethylene glycol (7:3, v/v) was applied. In order to test the preventative effect of wrinkle formation, skin replicas were taken using silicone polymer (SILFLO Impression Material, Flexico, England). The image files of the skin replicas were subjected to wrinkle evaluation using the computer imaging analysis system, i.e. Skin Visiometer SV 600 software (Courage+Khazaha Electronic, Kln, Germany). Rt, Rm, Rz and Ra values (Rt: the distance from the highest and lowest portions on the skin surface, Rm: the maximum Rt value among five (5) measurements, Rz: the mean Rt value of five measurements, Ra: the arithmetic mean value of surface roughness) were determined The results are shown in FIGS. 12 and 13A to 13D.
By using Tewameter (TM 300, Courage+Khazaha Electronic, Kln, Germany), Trans-Epidermal Water Loss (TEWL) was measured on the back of the mice in Example 7-1.

SMILES	TEWL
COc1cc(OC)c2c(=O)cc(-c3ccccc3)oc2c1 [5,7-dimethoxyflavone]	19.4 g/m^2/hr
COc1cc(OC)c2c(=O)c(OC)c(-c3ccc(OC)c(OC)c3)oc2c1 [3,5,7,3′,4′-pentamethoxyflavone]	22.0 g/m^2/hr
COc1ccc(-c2cc(=O)c3c(OC)cc(OC)cc3o2)cc1 [5,7,4′-trimethoxyflavone]	24.8 g/m^2/hr

test system: hairless mice (Hos: HR-1); experiment: Skin elasticity, application onto the skin (Cutometer); type: in vivo; details: UV-exposed hairless mice, skin application for 8 weeks; Non UV-treated Group = 100
Experimental: as §2
By using Cutometer (MPA 580, Courage+Khazaha Electronic, Germany), skin elasticity was measured on the back of the mice in the above Example 7-1 and compared with Non UV-treated Group.

SMILES	Degree of skin elasticity
COc1cc(OC)c2c(=O)cc(-c3ccccc3)oc2c1 [5,7-dimethoxyflavone]	83.5%
COc1cc(OC)c2c(=O)c(OC)c(-c3ccc(OC)c(OC)c3)oc2c1 [3,5,7,3′,4′-pentamethoxyflavone]	72.3%
COc1ccc(-c2cc(=O)c3c(OC)cc(OC)cc3o2)cc1 [5,7,4′-trimethoxyflavone]	76.9%

test system: Procollagen Type-I C Peptide (PIP); experiment: Enhancing effect on collagen production (Procollagen Type-I C Peptide ELISA) in UV-exposed human fibroblasts; type: cell-based; details: 15 mJ UV, 20 μM flavones, 20 μg/ml ethanol extract, PIP in supernatant
Experimental: (§3) Firstly, human fibroblasts were placed in a 96-well microtiter plate (5,000 cells/well) containing DMEM (Dulbecco's Modified Eagle's Media) which comprises 2.5% bovine fetal serum, and cultured until they reached a growth rate of around 90%. Then, the cells were treated for 24 hours in serum-free DMEM containing 20 μM of 5,7-dimethoxyflavone, 20 μM 5,7,4′-trimethoxyflavone, 20 μM 3,5,7,3′,4′-pentamethoxyflavone and 20 μg/ml of the ethanol extract of Kaempferia parviflora of Examples 1-4, respectively, and followed by the exposure to 15 mJ of UV. Subsequently, the cells were additionally treated with serum-free DMEM containing 20 μM of 5,7-dimethoxyflavone, 20 μM 5,7,4′-trimethoxyflavone, 20 μM 3,5,7,3′,4′-pentamethoxyflavone and 20 μg/ml of the ethanol extract of Kaempferia parviflora of Examples 1-4, respectively. After 24 hours, the cell culture was collected and centrifuged to obtain the supernatant. For the obtained supernatant, the production of Procollagen Type-I C Peptide (PIP), an indicator of collagen production, was quantitatively measured by ELISA kit (MK101, Takara Bio Ink., Japan) so as to observe their effect on collagen production.
Firstly, antibody-PIP conjugates tagged to peroxidase were added to a 96-well plate evenly coated with mouse monoclonal antibodies against Procollagen. Then, the above obtained cell culture was added and reacted for 3 hours in an incubator, followed by the addition of substrate solution for color formation. Upon staying for 15 minutes at room temperature, the reaction was ended after the addition of reaction termination solution. Absorbance was measured with an absorptiometer at 450 nm.

SMILES	Content of Collagen
COc1cc(OC)c2c(=O)cc(-c3ccccc3)oc2c1 [5,7-dimethoxyflavone]	236.7 ng/10^5 cell
COc1cc(OC)c2c(=O)c(OC)c(-c3ccc(OC)c(OC)c3)oc2c1 [3,5,7,3′,4′-pentamethoxyflavone]	226.5 ng/10^5 cell
COc1ccc(-c2cc(=O)c3c(OC)cc(OC)cc3o2)cc1 [5,7,4′-trimethoxyflavone]	230.0 ng/10^5 cell

test system: Collagenase-1 (Matrix Metalloproteinase-1, MMP-1); experiment: Inhibition of UV-induced Collagenase-1 (MMP-1) production in human fibroblasts (ELISA kit); type: cell-based; details: 15 mJ UV, 20 μM flavones, 20 μg/ml ethanol extract, FIG. 11
Experimental: as §3, with “supernatant.” for “supernatant. For the obtained supernatant, the production of Procollagen Type-I C Peptide (PIP), an indicator of collagen production, was quantitatively measured by ELISA kit (MK101, Takara Bio Ink., Japan) so as to observe their effect on collagen production.”
For the resulting supernatant, the degree of Collagenase-1 (MMP-1) production was observed by Collagenase-1 Measurement Kit (QIA55, Merch & Co., USA). Firstly, the above obtained cell culture was placed in a 96-well plate evenly coated with primary antibodies against Collagenase-1 (MMP-1), followed by antigen-antibody reaction for 2 hours at room temperature. After 2 hours, primary antibodies against collagen with fluorescence were added to the said 96-well plate for 1 hour. After 1 hour, a substance inducing color formation was added and left for 30 minutes at room temperature. Then, a termination buffer was added to discontinue the color formation, resulting in the formation of yellow color. The degree of yellow color varied depending on the degree of the said reaction process. Absorbance of the 96-well plate showing yellow color was measured with an absorptiometer at 450 nm.

SMILES	inhibition of Collagenase-1 (MMP-1) activity induced by UV light
COc1cc(OC)c2c(=O)cc(-c3ccccc3)oc2c1 [5,7-dimethoxyflavone]	excellent for inhibiting Collagenase-1 (MMP-1) activity
COc1cc(OC)c2c(=O)c(OC)c(-c3ccc(OC)c(OC)c3)oc2c1 [3,5,7,3′,4′-pentamethoxyflavone]	excellent for inhibiting Collagenase-1 (MMP-1) activity
COc1ccc(-c2cc(=O)c3c(OC)cc(OC)cc3o2)cc1 [5,7,4′-trimethoxyflavone]	excellent for inhibiting Collagenase-1 (MMP-1) activity

test system: hairless mice (Hos: HR-1); experiment: Skin elasticity, oral administration (Cutometer); type: in vivo; details: UV-exposed hairless mice, oral daily for 8 weeks; flavones 50 mg/kg/day, extract 200 mg/kg/day; Non UV-treated Group = 100
Experimental: as §1
By using Cutometer (MPA 580, Courage+Khazaha Electronic, Germany), skin elasticity was measured on the back of the mice in Example 7-2 and compared with Non UV-treated Group.

SMILES	Degree of skin elasticity
COc1cc(OC)c2c(=O)cc(-c3ccccc3)oc2c1 [5,7-dimethoxyflavone]	77.3%
COc1cc(OC)c2c(=O)c(OC)c(-c3ccc(OC)c(OC)c3)oc2c1 [3,5,7,3′,4′-pentamethoxyflavone]	81.7%
COc1ccc(-c2cc(=O)c3c(OC)cc(OC)cc3o2)cc1 [5,7,4′-trimethoxyflavone]	85.6%

test system: hairless mice (Hos: HR-1); experiment: In vivo improvement of UV-induced wrinkles, application onto the skin (skin replicas, Skin Visiometer); details: UV-exposed hairless mice, 50 μL applied onto the back every day for 8 weeks; FIG. 12
Experimental: as §2

SMILES	wrinkle formation (skin replicas) in comparison with UV-treated Group
COc1cc(OC)c2c(=O)cc(-c3ccccc3)oc2c1 [5,7-dimethoxyflavone]	remarkable decrease in wrinkle formation
COc1cc(OC)c2c(=O)c(OC)c(-c3ccc(OC)c(OC)c3)oc2c1 [3,5,7,3′,4′-pentamethoxyflavone]	remarkable decrease in wrinkle formation
COc1ccc(-c2cc(=O)c3c(OC)cc(OC)cc3o2)cc1 [5,7,4′-trimethoxyflavone]	remarkable decrease in wrinkle formation

same assay, conditions: UV-exposed hairless mice, skin application for 8 weeks; p<0.05; FIGS. 13A-13D

SMILES	Rt, Rm, Rz and Ra values (degree of wrinkle formation)
COc1cc(OC)c2c(=O)cc(-c3ccccc3)oc2c1 [5,7-dimethoxyflavone]	significantly reduced
COc1cc(OC)c2c(=O)c(OC)c(-c3ccc(OC)c(OC)c3)oc2c1 [3,5,7,3′,4′-pentamethoxyflavone]	significantly reduced
COc1ccc(-c2cc(=O)c3c(OC)cc(OC)cc3o2)cc1 [5,7,4′-trimethoxyflavone]	significantly reduced

test system: hairless mice (Hos: HR-1); experiment: UV-induced Trans-Epidermal Water Loss (TEWL), oral administration (Tewameter); type: in vivo; details: UV-exposed hairless mice, oral daily for 8 weeks; flavones 50 mg/kg/day, extract 200 mg/kg/day
Experimental: as §1
By using Tewameter (TM 300, Courage+Khazaha Electronic, Kln, Germany), Trans-Epidermal Water Loss (TEWL) was measured on the back of the mice in Example 7-2.

SMILES	TEWL
COc1cc(OC)c2c(=O)cc(-c3ccccc3)oc2c1 [5,7-dimethoxyflavone]	16.4 g/m^2/hr
COc1cc(OC)c2c(=O)c(OC)c(-c3ccc(OC)c(OC)c3)oc2c1 [3,5,7,3′,4′-pentamethoxyflavone]	20.3 g/m^2/hr
COc1ccc(-c2cc(=O)c3c(OC)cc(OC)cc3o2)cc1 [5,7,4′-trimethoxyflavone]	19.6 g/m^2/hr

Reference: patent US20140148504A1, “NOVEL USE OF FLAVONE-BASED COMPOUND” (Industry-Academic Cooperation Foundation, Younsei University, priority 2011, published 2014)
